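Abbreviation: GI50, concentration required for 50% inhibition of growth. Definition used: TGI = concentration required for complete inhibition of growth.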
Columns and labels:
Assay in all cases: NCI-60 cell line screen, 384-well format
[1] = system: UACC-257 melanoma
[2] = system: HT29 colon
[3] = system: UO-31 renal
[4] = system: MDA-MB-231 breast
[5] = system: SN12C renal
[6] = system: DU-145 prostate
[7] = system: NCI-H522 lung
[8] = system: RXF 393 renal
[9] = system: LOX IMVI melanoma
[10] = system: 786-0 renal
[11] = system: OVCAR-5 ovarian
[12] = system: NCI-H226 lung
[13] = system: IGROV1 ovarian
[14] = system: MDA-MB-435 melanoma
[15] = system: A549 NSCLC
[16] = system: U251 glioblastoma
[17] = system: MOLT-4 leukemia
[18] = system: TK-10 renal
[19] = system: NCI-H23 lung
[20] = system: SR leukemia
[21] = system: HCC-2998 colon
[22] = system: HS 578T breast
[23] = system: MCF7 breast
[24] = system: SF-539 CNS
[25] = system: EKVX NSCLC
[26] = system: SF-295 CNS
[27] = system: PC-3 prostate
[28] = system: NCI-H322M lung
[29] = system: HOP-92 NSCLC
[30] = system: OVCAR-3 ovarian
[31] = system: T-47D breast
[32] = system: OVCAR-4 ovarian
[33] = system: KM12 colon
[34] = system: SNB-19 CNS
[35] = system: CAKI-1 renal
[36] = system: HL-60(TB) leukemia
[37] = system: M14 melanoma
[38] = system: K-562 leukemia
[39] = system: SK-MEL-5 melanoma
[40] = system: BT-549 breast
[41] = system: NCI/ADR-RES ovarian
[42] = system: HOP-62 NSCLC
[43] = system: CCRF-CEM leukemia
[44] = system: COLO 205 colon
[45] = system: ACHN renal
[46] = system: SF-268 CNS
[47] = system: SK-OV-3 ovarian
[48] = system: NCI-H460 NSCLC
[49] = system: RPMI-8226 leukemia
[50] = system: MDA-MB-468 breast
[51] = system: MALME-3M melanoma
[52] = system: OVCAR-8 ovarian
[53] = system: HCT-15 colon
[54] = system: A498 renal
[55] = system: SK-MEL-28 melanoma
[56] = system: SNB-75 CNS
[57] = system: SW-620 colon
[58] = system: UACC-62 melanoma
[59] = system: SK-MEL-2 melanoma
[60] = system: HCT-116 colon

CNC(=O)CN1CCC(Oc2cc3c(Nc4cccc(Cl)c4F)ncnc3cc2OC)CC1
GI50 [1]: 14.6 µM
TGI [1]: 28.1 µM
GI50 [2]: 11.3 µM
TGI [2]: 24.6 µM
GI50 [3]: 12.4 µM
TGI [3]: > 100 µM
GI50 [4]: 4.2 µM
TGI [4]: 18.1 µM
GI50 [5]: 0.426 µM
TGI [5]: 9.66 µM
GI50 [6]: 3.88 µM
TGI [6]: 43.4 µM
GI50 [7]: 0.0493 µM
TGI [7]: 11.6 µM
GI50 [8]: 10.1 µM
TGI [8]: 25.5 µM
GI50 [9]: 10.7 µM
TGI [9]: 22.6 µM
GI50 [10]: 5.7 µM
TGI [10]: 24.6 µM
GI50 [11]: 0.906 µM
TGI [11]: 10.9 µM
GI50 [12]: 11.1 µM
TGI [12]: 29.9 µM
GI50 [13]: 0.068 µM
TGI [13]: 1.55 µM
GI50 [14]: 26.6 µM
TGI [14]: 83.5 µM
GI50 [15]: 2.31 µM
TGI [15]: 17.7 µM
GI50 [16]: 17.2 µM
TGI [16]: 36.3 µM
GI50 [17]: 14.1 µM
TGI [17]: 27.2 µM
GI50 [18]: 0.0537 µM
TGI [18]: 13 µM
GI50 [19]: 10.7 µM
TGI [19]: 30.8 µM
GI50 [20]: 15.1 µM
TGI [20]: 29.3 µM
GI50 [21]: 14.9 µM
TGI [21]: 28.4 µM
GI50 [22]: 4.07 µM
TGI [22]: 16.1 µM
GI50 [23]: 10.3 µM
TGI [23]: 24.9 µM
GI50 [24]: 12.4 µM
TGI [24]: 25.5 µM
GI50 [25]: 0.0357 µM
TGI [25]: 4.33 µM
GI50 [26]: 14.8 µM
TGI [26]: 28.3 µM
GI50 [27]: 14.7 µM
TGI [27]: 35 µM
GI50 [28]: < 0.01 µM
TGI [28]: 1.89 µM
GI50 [29]: 4.39 µM
TGI [29]: 20.2 µM
GI50 [30]: 1.95 µM
TGI [30]: 14.8 µM
GI50 [31]: 0.38 µM
TGI [31]: 6.28 µM
GI50 [32]: 3.28 µM
TGI [32]: 24.3 µM
GI50 [33]: 18.7 µM
TGI [33]: 35.6 µM
GI50 [34]: 14.3 µM
TGI [34]: 45.2 µM
GI50 [35]: 0.915 µM
TGI [35]: 13.5 µM
GI50 [36]: 18.9 µM
TGI [36]: 33 µM
GI50 [37]: 15.3 µM
TGI [37]: 29.1 µM
GI50 [38]: 10.9 µM
TGI [38]: 23.3 µM
GI50 [39]: 10.2 µM
TGI [39]: 21.9 µM
GI50 [40]: 11.7 µM
TGI [40]: 27.1 µM
GI50 [41]: 12.9 µM
TGI [41]: 29.4 µM
GI50 [42]: 8.39 µM
TGI [42]: 27.5 µM
GI50 [43]: 15.3 µM
TGI [43]: 29.9 µM
GI50 [44]: 15.3 µM
TGI [44]: 28.7 µM
GI50 [45]: 0.0298 µM
TGI [45]: 10.7 µM
GI50 [46]: 9.9 µM
TGI [46]: 36.4 µM
GI50 [47]: 0.383 µM
TGI [47]: 11.3 µM
GI50 [48]: 16.3 µM
TGI [48]: 34.1 µM
GI50 [49]: 9.35 µM
TGI [49]: 21.5 µM
GI50 [50]: < 0.01 µM
GI50 [51]: 12.8 µM
TGI [51]: 26.7 µM
GI50 [52]: 13.1 µM
TGI [52]: 43.2 µM
GI50 [53]: 10.8 µM
TGI [53]: 22.8 µM
GI50 [54]: 12.4 µM
TGI [54]: 27.2 µM
GI50 [55]: 13.9 µM
TGI [55]: 27 µM
GI50 [56]: 9.75 µM
TGI [56]: 34.1 µM
GI50 [57]: 13.9 µM
TGI [57]: 27.4 µM
GI50 [58]: 13.9 µM
TGI [58]: 27.1 µM

COc1cc(N2CCC(N3CCN(C)CC3)CC2)ccc1Nc1ncc(Cl)c(Nc2ccccc2S(=O)(=O)C(C)C)n1
GI50 [1]: 0.571 µM
TGI [1]: 1.95 µM
GI50 [2]: 0.0486 µM
TGI [2]: 0.294 µM
GI50 [3]: 0.929 µM
TGI [3]: 2.14 µM
GI50 [4]: 0.556 µM
TGI [4]: 1.89 µM
GI50 [5]: 0.385 µM
TGI [5]: 1.4 µM
GI50 [6]: 0.3 µM
TGI [6]: 1.63 µM
GI50 [7]: 0.367 µM
TGI [7]: 1.49 µM
GI50 [8]: 0.294 µM
TGI [8]: 0.952 µM
GI50 [10]: 1.01 µM
TGI [10]: 2.17 µM
GI50 [12]: 0.118 µM
TGI [12]: 0.648 µM
GI50 [13]: 0.283 µM
TGI [13]: 1.16 µM
GI50 [14]: 0.447 µM
TGI [14]: 1.96 µM
GI50 [59]: 0.383 µM
TGI [59]: 1.83 µM
GI50 [17]: 0.202 µM
TGI [17]: 0.687 µM
GI50 [18]: 0.379 µM
TGI [18]: 1.51 µM
GI50 [19]: 0.228 µM
TGI [19]: 1.39 µM
GI50 [24]: 0.246 µM
TGI [24]: 0.673 µM
GI50 [25]: 0.0487 µM
TGI [25]: 0.263 µM
GI50 [27]: 1.03 µM
TGI [27]: 2.22 µM
GI50 [29]: 0.318 µM
TGI [29]: 1.31 µM
GI50 [30]: 0.517 µM
TGI [30]: 1.78 µM
GI50 [32]: 0.417 µM
TGI [32]: 12.2 µM
GI50 [33]: 0.319 µM
TGI [33]: 1.29 µM
GI50 [34]: 1.22 µM
TGI [34]: 2.52 µM
GI50 [35]: 0.49 µM
TGI [35]: 1.56 µM
GI50 [36]: 0.0361 µM
TGI [36]: 0.187 µM
GI50 [37]: 0.491 µM
TGI [37]: 1.86 µM
GI50 [38]: 0.404 µM
TGI [38]: 1.68 µM
GI50 [40]: 0.418 µM
TGI [40]: 1.32 µM
GI50 [42]: 0.356 µM
TGI [42]: 1.35 µM
GI50 [44]: 0.0518 µM
TGI [44]: 0.232 µM
GI50 [46]: 0.397 µM
TGI [46]: 1.51 µM
GI50 [47]: 1.11 µM
TGI [47]: 2.32 µM
GI50 [48]: 0.131 µM
TGI [48]: 1.07 µM
GI50 [50]: 0.133 µM
TGI [50]: 0.315 µM
GI50 [51]: 0.494 µM
TGI [51]: 1.84 µM
GI50 [54]: 0.79 µM
TGI [54]: 2.79 µM
GI50 [60]: 0.308 µM
TGI [60]: 1.63 µM
GI50 [55]: 17.8 µM
TGI [55]: 32.3 µM
GI50 [57]: 0.218 µM
TGI [57]: 1.18 µM
GI50 [58]: 0.388 µM
TGI [58]: 1.69 µM
